In patent US20080009418A1, “Selective Inhibitors” (Alchemia LTD., priority 2004, published 2008):

Experiments:
[1] = target: T1, Human melanin-concentrating hormone (MCH1) (Homo sapiens, UniProt Q99705); test: Radioligand binding, human melanin-concentrating hormone MCH1 membranes, FlashPlate, [125I]-S36057; details: compound at 10 μM; for A6: inhibition of radioligand binding, human melanin-concentrating hormone (MCH1): [125I]-S36057
T1 construct: purchased Perkin Elmer Biosignal
Summary of the method: (§1)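 Cloned human receptor membranes were coated onto FlashPlate wells and incubated with radioligand and compound (added from a 0.5 mM DMSO daughter plate) for 1 hour at room temperature in the dark. Scintillation counting gave percent inhibition, with DMSO defining total and reference ligand defining non-specific binding.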

[2] = target: T2, Human neurokinin (NK1) (Homo sapiens, UniProt P25103); test: Radioligand binding, human neurokinin NK1 membranes, filtration, [125I]-Substance P; details: compound at 10 μM, [125I]-Substance P
T2 construct: purchased Perkin Elmer Biosignal
Summary of the method: (§2)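 Filtration binding on cloned human receptor membranes (1 Unit/well), [125I]-Substance P for NK1 and [3H]-Diprenorphine for KOP, 1 h at room temperature. Filters PEI-presoaked, washed with cold 50 mM Tris-HCl pH 7.4, counted by scintillation; percent inhibition calculated, reference ligand defining non-specific binding.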

[3] = target: T3, Human opioid (ORL1) (Homo sapiens, UniProt P41146); test: Radioligand binding, human opioid ORL1 membranes, FlashPlate, [125I]-Nociceptin; details: compound at 10 μM, [125I]-Nociceptin
T3 construct: purchased Perkin Elmer Biosignal
Summary of the method: as §1

[4] = target: T4, Human melanocortin (MC5) (Homo sapiens, UniProt P33032); test: Radioligand binding, human melanocortin MC5 membranes, FlashPlate, [125I]-NDP-αMSH; details: compound at 10 μM, [125I]-NDP-αMSH
T4 construct: purchased Perkin Elmer Biosignal
Summary of the method: as §1

[5] = target: T5, Human κ-Opioid (KOP) (Homo sapiens, UniProt P41145); test: Radioligand binding, human κ-opioid (KOP) membranes, filtration, [3H]-Diprenorphine; details: compound at 10 μM, [3H]-Diprenorphine
T5 construct: purchased Perkin Elmer Biosignal
Summary of the method: as §2

[6] = target: T6, Human δ-opioid (DOP) (Homo sapiens, UniProt P41143); test: Radioligand binding, human δ-opioid (DOP) membranes, FlashPlate, [3H]-Bremazocine; details: compound at 10 μM, [3H]-Bremazocine
T6 construct: purchased Perkin Elmer Biosignal
Summary of the method: as §1

[7] = target: T7, Human μ-opioid (MOP) (Homo sapiens, UniProt P35372); test: Radioligand binding, human μ-opioid (MOP) membranes, FlashPlate, [3H]-Naloxone; details: compound at 10 μM, [3H]-Naloxone
T7 construct: purchased Perkin Elmer Biosignal
Summary of the method: as §1

[8] = target: T8, Human Melanocortin (MC3) (Homo sapiens, UniProt P41968); test: Radioligand binding, human melanocortin MC3 membranes, FlashPlate, [125I]-NDP-αMSH; details: compound at 10 μM, [125I]-NDP-αMSH
T8 construct: purchased Perkin Elmer Biosignal
Summary of the method: as §1

[9] = target: T9, Human neuropeptide Y (NPY-Y1) (Homo sapiens, UniProt P25929); test: Radioligand binding, human neuropeptide Y NPY-Y1 membranes, FlashPlate, [125I]-PYY; details: compound at 10 μM, [125I]-PYY
T9 construct: purchased Perkin Elmer Biosignal
T9 sequence (P25929 1-384): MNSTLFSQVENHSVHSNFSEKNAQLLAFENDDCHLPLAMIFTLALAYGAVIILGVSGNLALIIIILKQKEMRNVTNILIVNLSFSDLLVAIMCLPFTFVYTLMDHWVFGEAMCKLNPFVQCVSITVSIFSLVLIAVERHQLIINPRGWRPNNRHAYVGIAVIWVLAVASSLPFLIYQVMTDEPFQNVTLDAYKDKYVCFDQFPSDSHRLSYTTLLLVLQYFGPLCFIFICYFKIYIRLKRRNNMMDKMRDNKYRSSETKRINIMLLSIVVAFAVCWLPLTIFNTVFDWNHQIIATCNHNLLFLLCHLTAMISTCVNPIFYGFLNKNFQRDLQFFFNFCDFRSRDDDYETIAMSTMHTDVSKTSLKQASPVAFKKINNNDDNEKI
Summary of the method: as §1

[10] = target: T10, Mouse urotensin (mUR2) (Mus musculus, UniProt Q8VIH9); test: Radioligand binding, mouse urotensin mUR2 membranes, FlashPlate, [125I]-Urotensin II; details: compound at 10 μM, [125I]-Urotensin II
T10 construct: purchased Perkin Elmer Biosignal
T10 sequence (Q8VIH9 1-385): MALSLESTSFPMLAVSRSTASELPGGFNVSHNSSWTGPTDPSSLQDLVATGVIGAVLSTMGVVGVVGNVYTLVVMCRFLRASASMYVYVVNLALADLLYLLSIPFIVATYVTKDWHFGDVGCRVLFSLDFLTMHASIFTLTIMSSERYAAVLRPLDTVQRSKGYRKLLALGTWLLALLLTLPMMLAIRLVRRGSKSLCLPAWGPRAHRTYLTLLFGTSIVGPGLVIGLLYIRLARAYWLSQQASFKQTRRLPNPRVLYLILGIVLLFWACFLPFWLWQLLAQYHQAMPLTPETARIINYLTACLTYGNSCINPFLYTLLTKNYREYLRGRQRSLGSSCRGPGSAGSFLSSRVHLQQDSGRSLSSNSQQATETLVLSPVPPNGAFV
Summary of the method: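 Cloned mouse urotensin (mUR2) receptor membranes from Perkin Elmer Biosignal were immobilized in FlashPlate microplates using a proprietary coating. Each well got 19.5 μl buffer, then 0.5 μl of DMSO, reference ligand, or compound. Adding 5 μl of [125I]-Urotensin II, diluted to 5× final concentration in binding buffer, started binding. Plates were sealed with TopSeal-A and incubated 1 hour at room temperature in the dark. Wells were counted for 30 seconds each on a TopCount after a 60-second delay, and percentage inhibition was calculated.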

[11] = target: T11, Human Melanocortin (MC4) (Homo sapiens, UniProt P32245); test: Radioligand binding, human melanocortin MC4 membranes, FlashPlate, [125I]-NDP-αMSH; details: compound at 10 μM, [125I]-NDP-αMSH
T11 construct: purchased Perkin Elmer Biosignal
Summary of the method: as §1

T3 sequence (P41146 whole entry): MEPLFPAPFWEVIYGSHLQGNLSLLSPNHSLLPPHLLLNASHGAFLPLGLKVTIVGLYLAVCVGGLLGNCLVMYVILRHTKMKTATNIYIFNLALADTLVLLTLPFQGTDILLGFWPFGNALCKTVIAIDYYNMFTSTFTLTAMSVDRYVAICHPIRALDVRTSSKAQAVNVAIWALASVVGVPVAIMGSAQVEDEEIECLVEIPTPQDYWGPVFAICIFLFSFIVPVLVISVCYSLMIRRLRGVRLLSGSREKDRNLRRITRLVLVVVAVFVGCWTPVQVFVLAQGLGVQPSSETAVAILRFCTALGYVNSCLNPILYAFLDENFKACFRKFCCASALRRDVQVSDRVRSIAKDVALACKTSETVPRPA
T4 sequence (P33032 whole entry): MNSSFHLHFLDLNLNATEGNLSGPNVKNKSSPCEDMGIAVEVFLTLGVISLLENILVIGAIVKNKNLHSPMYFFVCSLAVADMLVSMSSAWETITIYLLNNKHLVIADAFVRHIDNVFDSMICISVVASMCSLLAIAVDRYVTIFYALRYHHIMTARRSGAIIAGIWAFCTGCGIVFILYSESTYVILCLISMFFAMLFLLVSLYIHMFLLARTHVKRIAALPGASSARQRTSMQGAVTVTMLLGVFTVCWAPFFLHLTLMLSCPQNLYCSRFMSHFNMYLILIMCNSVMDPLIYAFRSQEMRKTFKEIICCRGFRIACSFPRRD
T7 sequence (P35372 whole entry): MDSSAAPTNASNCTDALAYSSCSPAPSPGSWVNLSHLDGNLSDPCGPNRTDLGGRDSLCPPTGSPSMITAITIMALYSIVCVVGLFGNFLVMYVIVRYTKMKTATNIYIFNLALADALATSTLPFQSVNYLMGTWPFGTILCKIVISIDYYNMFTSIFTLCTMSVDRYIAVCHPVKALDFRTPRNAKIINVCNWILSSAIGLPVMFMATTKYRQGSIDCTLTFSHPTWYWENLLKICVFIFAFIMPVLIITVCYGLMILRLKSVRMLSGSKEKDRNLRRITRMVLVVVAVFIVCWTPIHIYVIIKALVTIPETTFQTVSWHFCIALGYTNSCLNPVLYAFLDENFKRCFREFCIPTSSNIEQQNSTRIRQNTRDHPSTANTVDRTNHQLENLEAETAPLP
T11 sequence (P32245 whole entry): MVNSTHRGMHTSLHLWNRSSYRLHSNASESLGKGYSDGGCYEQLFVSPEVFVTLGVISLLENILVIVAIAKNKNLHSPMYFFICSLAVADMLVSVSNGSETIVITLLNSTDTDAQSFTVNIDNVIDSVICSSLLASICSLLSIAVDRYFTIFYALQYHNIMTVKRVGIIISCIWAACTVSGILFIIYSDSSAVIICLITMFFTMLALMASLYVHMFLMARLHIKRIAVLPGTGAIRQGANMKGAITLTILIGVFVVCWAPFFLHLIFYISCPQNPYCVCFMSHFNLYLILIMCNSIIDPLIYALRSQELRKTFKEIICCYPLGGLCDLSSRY
T5 sequence (P41145 whole entry): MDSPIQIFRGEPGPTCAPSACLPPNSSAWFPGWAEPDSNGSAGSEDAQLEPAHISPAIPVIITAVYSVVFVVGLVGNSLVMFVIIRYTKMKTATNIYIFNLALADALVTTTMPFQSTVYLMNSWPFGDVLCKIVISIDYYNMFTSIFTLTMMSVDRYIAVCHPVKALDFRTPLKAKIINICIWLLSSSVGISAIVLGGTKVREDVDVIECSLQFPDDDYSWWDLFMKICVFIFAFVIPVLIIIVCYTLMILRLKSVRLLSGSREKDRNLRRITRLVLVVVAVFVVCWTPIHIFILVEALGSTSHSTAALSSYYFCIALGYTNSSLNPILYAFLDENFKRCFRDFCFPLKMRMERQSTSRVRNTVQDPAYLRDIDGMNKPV
T1 sequence (Q99705 whole entry): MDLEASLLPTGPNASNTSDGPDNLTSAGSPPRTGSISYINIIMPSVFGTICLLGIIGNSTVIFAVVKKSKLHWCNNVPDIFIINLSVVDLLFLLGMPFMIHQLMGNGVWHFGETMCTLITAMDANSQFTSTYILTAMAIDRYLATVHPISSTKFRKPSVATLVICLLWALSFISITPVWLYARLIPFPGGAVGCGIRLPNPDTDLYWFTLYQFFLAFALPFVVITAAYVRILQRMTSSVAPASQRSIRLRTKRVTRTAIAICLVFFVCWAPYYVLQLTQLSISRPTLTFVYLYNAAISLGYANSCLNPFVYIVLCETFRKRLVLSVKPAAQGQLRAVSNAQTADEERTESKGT
T2 sequence (P25103 whole entry): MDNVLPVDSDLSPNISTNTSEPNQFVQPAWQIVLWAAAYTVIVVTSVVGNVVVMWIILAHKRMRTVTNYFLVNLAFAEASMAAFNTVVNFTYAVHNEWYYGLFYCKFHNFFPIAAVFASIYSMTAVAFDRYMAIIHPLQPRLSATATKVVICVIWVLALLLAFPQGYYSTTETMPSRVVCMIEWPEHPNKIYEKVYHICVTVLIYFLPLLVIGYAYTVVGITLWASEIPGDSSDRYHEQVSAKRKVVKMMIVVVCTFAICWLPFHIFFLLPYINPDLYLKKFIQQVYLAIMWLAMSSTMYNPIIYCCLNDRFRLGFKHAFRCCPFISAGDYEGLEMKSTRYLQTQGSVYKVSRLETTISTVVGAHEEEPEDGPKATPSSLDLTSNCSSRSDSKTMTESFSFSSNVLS
T6 sequence (P41143 whole entry): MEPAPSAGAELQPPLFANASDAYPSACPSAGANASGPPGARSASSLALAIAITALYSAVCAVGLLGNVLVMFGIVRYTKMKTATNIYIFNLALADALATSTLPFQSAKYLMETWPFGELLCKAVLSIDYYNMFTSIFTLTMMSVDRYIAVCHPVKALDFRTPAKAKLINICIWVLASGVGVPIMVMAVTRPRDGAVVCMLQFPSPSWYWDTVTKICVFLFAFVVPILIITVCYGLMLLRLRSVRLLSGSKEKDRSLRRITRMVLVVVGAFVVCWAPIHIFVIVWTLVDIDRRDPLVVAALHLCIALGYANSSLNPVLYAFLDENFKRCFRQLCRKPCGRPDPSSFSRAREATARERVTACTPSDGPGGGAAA
T8 sequence (P41968 whole entry): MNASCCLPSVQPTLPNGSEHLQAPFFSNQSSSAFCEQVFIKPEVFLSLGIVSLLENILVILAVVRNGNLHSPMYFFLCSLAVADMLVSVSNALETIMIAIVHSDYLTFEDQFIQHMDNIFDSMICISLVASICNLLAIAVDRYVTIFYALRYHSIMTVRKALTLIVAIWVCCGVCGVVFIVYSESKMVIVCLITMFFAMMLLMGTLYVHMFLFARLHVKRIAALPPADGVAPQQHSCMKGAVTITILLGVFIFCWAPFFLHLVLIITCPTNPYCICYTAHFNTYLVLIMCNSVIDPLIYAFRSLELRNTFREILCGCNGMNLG

| SMILES | A6: inhibition of radioligand binding, human melanin-concentrating hormone (MCH1) [1] | A8: inhibition of radioligand binding, human neurokinin (NK1) [2] | A10: inhibition of radioligand binding, human opioid (ORL1) [3] | A5: inhibition of radioligand binding, human melanocortin (MC5) [4] | A2: inhibition of radioligand binding, human κ-opioid (KOP) [5] | A1: inhibition of radioligand binding, human δ-opioid (DOP) [6] | A7: inhibition of radioligand binding, human μ-opioid (MOP) [7] | A3: inhibition of radioligand binding, human melanocortin (MC3) [8] | A9: inhibition of radioligand binding, human neuropeptide Y (NPY-Y1) [9] | A11: inhibition of radioligand binding, mouse urotensin (mUR2) [10] | A4: inhibition of radioligand binding, human melanocortin (MC4) [11] | other results |
| --- | --- | --- | --- | --- | --- | --- | --- | --- | --- | --- | --- | --- |
| CSC1OC(COCc2cccc(N)c2)C(O)C(OCc2ccc(Cl)cc2)C1NC(=O)c1ccccc1 (stereo not shown) [compound 332] | − (“−” indicates less than 50% inhibition at 10 μM) | + (“+” indicates greater than 50% inhibition at 10 μM) | − (“−” indicates less than 50% inhibition at 10 μM) | − (“−” indicates less than 50% inhibition at 10 μM) | − (“−” indicates less than 50% inhibition at 10 μM) | − (“−” indicates less than 50% inhibition at 10 μM) | − (“−” indicates less than 50% inhibition at 10 μM) | − (“−” indicates less than 50% inhibition at 10 μM) | − (“−” indicates less than 50% inhibition at 10 μM) | − (“−” indicates less than 50% inhibition at 10 μM) | − (“−” indicates less than 50% inhibition at 10 μM) | – |
| NCCCC(=O)NC1C(OCc2ccc(Cl)cc2)OC(COCc2ccc3ccccc3c2)C(O)C1OCc1ccc(Cl)cc1 (single isomer, unassigned) [compound 490] | – | + (“+” indicates greater than 50% inhibition at 10 μM) | + (“+” indicates greater than 50% inhibition at 10 μM) | + (“+” indicates greater than 50% inhibition at 10 μM) | − (“−” indicates less than 50% inhibition at 10 μM) | − (“−” indicates less than 50% inhibition at 10 μM) | + (“+” indicates greater than 50% inhibition at 10 μM) | + (“+” indicates greater than 50% inhibition at 10 μM) | − (“−” indicates less than 50% inhibition at 10 μM) | − (“−” indicates less than 50% inhibition at 10 μM) | + (“+” indicates greater than 50% inhibition at 10 μM) | A6: inhibition of radioligand binding, human melanin-concentrating hormone (MCH1) ([1]; 10 µM): + (“+” indicates greater than 50% inhibition at 10 μM) |
| NCCC(=O)NC1C(OCc2ccc3ccccc3c2)OC(COCc2ccccc2)C(O)C1OCc1ccc(Cl)cc1 (stereo not shown) [compound 382] | – | – | – | – | – | – | – | – | – | – | – | A6: inhibition of radioligand binding ([1]; [125I]-S36057, human MCH1 membranes): − (“−” indicates less than 50% inhibition at 10 μM); A8: inhibition of radioligand binding ([2]; human NK1 membranes): + (“+” indicates greater than 50% inhibition at 10 μM); A10: inhibition of radioligand binding ([3]; human ORL1 membranes): − (“−” indicates less than 50% inhibition at 10 μM); A5: inhibition of radioligand binding ([4]; human MC5 membranes): + (“+” indicates greater than 50% inhibition at 10 μM); A2: inhibition of radioligand binding ([5]; human KOP membranes): − (“−” indicates less than 50% inhibition at 10 μM); A1: inhibition of radioligand binding ([6]; human DOP membranes): − (“−” indicates less than 50% inhibition at 10 μM); A7: inhibition of radioligand binding ([7]; human MOP membranes): − (“−” indicates less than 50% inhibition at 10 μM); A3: inhibition of radioligand binding ([8]; human MC3 membranes): − (“−” indicates less than 50% inhibition at 10 μM); A9: inhibition of radioligand binding ([9]; human NPY-Y1 membranes): − (“−” indicates less than 50% inhibition at 10 μM); A11: inhibition of radioligand binding ([10]; mouse mUR2 membranes): − (“−” indicates less than 50% inhibition at 10 μM); A4: inhibition of radioligand binding ([11]; human MC4 membranes): + (“+” indicates greater than 50% inhibition at 10 μM) |
| N=C(N)NCCC(=O)N[C@H]1C(OCc2ccc(Cl)cc2)O[C@H](COCc2ccccc2)[C@@H](O)[C@@H]1OCc1ccc(-c2ccccc2)cc1 (stereo partly shown) [compound 535] | + (“+” indicates greater than 50% inhibition at 10 μM) | + (“+” indicates greater than 50% inhibition at 10 μM) | − (“−” indicates less than 50% inhibition at 10 μM) | + (“+” indicates greater than 50% inhibition at 10 μM) | + (“+” indicates greater than 50% inhibition at 10 μM) | – | – | + (“+” indicates greater than 50% inhibition at 10 μM) | − (“−” indicates less than 50% inhibition at 10 μM) | − (“−” indicates less than 50% inhibition at 10 μM) | + (“+” indicates greater than 50% inhibition at 10 μM) | A1: inhibition of radioligand binding, human δ-opioid (DOP) ([6]; 10 µM): + (“+” indicates greater than 50% inhibition at 10 μM); A7: inhibition of radioligand binding, human μ-opioid (MOP) ([7]; 10 µM): + (“+” indicates greater than 50% inhibition at 10 μM) |
| CSC1O[C@H](COCc2ccc(-c3ccccc3)cc2)[C@@H](O)[C@@H](OCc2ccc(-c3ccccc3)cc2)[C@H]1NC(=O)CCCN (stereo partly shown) [compound 294] | − (“−” indicates less than 50% inhibition at 10 μM) | + (“+” indicates greater than 50% inhibition at 10 μM) | − (“−” indicates less than 50% inhibition at 10 μM) | + (“+” indicates greater than 50% inhibition at 10 μM) | − (“−” indicates less than 50% inhibition at 10 μM) | − (“−” indicates less than 50% inhibition at 10 μM) | − (“−” indicates less than 50% inhibition at 10 μM) | − (“−” indicates less than 50% inhibition at 10 μM) | − (“−” indicates less than 50% inhibition at 10 μM) | − (“−” indicates less than 50% inhibition at 10 μM) | − (“−” indicates less than 50% inhibition at 10 μM) | – |
